Usually inhibition stands for the change of the read-out against control, counted positive when it falls.

The results in this text go back to US10077261B2, “Imidazolin-5-one derivative useful as FASN inhibitors for the treatment of cancer” (Janssen Pharmaceutica NV, priority 2012, dated 2018).

Molecules are shown by their SMILES.

The assay has as its target T1, hFASN enzyme (full length) (Homo sapiens, UniProt P49327).
T1 construct: 10 μL hFASN enzyme (full length, 300 ng, purified in house); made in house
The assay can be described thus: Fatty Acid Synthase (FASN) inhibition scintillation proximity assay. It counts as biochemical. To be noted: for inhibition at 10 µM: read-out: Human FASN % inhibition @ 10 μM, 10 μM test compound; for IC50: read-out: Human FASN pIC50 (converted). As for the experimental part: In this assay, inhibition of FASN activity is measured using ^3H-acetyl-CoA and malonyl-CoA as substrates. ^3H-Acetyl CoA is converted to ^3H-palmitate through a series of reactions by the FASN protein, which contains 7 functional domains and carries out 7 enzymatic reactions to ultimately produce ^3H-palmitate. The assay principle is based upon the fact that ^3H-acetyl-CoA is hydrophilic and the end product, ^3H-palmitate is hydrophobic.
10 μL assay buffer (100 mM KH2PO4 pH 7.5, 1 mM DTT) (20 μL in blanks) was added to a 384-well white optiplate plate (Perkin Elmer). 0.9 μL test compound (at concentrations of 30 μM, 10 μM, 3 μM, 1 μM, 0.30 μM, 0.10 μM, 0.03 μM and 0.01 μM)/DMSO and 10 μL hFASN enzyme (full length, 300 ng, purified in house) or 10 μL assay buffer was added to the wells. […] The reaction was stopped by adding 20 μL Streptavidin coupled imaging beads (25 mg/ml). After incubation for 30 minutes at room temperature in the dark, the 384 well plate was centrifuged at 1500 rpm for 3 minutes and was measured after at least 24 hrs by the LEADseeker™, measuring emission using a 610±20 nm pass filter.
where mLC and mHC were the means of the low control wells and high control wells on the plate, after manual exclusion of outliers. A plot of Controlmin versus test compound concentration was fitted to a 4-parameter logistic curve using a non-linear least squares regression method.
For orientation: Scintillation proximity formats need no separation of bound from free tracer.

T1 sequence (P49327 whole entry): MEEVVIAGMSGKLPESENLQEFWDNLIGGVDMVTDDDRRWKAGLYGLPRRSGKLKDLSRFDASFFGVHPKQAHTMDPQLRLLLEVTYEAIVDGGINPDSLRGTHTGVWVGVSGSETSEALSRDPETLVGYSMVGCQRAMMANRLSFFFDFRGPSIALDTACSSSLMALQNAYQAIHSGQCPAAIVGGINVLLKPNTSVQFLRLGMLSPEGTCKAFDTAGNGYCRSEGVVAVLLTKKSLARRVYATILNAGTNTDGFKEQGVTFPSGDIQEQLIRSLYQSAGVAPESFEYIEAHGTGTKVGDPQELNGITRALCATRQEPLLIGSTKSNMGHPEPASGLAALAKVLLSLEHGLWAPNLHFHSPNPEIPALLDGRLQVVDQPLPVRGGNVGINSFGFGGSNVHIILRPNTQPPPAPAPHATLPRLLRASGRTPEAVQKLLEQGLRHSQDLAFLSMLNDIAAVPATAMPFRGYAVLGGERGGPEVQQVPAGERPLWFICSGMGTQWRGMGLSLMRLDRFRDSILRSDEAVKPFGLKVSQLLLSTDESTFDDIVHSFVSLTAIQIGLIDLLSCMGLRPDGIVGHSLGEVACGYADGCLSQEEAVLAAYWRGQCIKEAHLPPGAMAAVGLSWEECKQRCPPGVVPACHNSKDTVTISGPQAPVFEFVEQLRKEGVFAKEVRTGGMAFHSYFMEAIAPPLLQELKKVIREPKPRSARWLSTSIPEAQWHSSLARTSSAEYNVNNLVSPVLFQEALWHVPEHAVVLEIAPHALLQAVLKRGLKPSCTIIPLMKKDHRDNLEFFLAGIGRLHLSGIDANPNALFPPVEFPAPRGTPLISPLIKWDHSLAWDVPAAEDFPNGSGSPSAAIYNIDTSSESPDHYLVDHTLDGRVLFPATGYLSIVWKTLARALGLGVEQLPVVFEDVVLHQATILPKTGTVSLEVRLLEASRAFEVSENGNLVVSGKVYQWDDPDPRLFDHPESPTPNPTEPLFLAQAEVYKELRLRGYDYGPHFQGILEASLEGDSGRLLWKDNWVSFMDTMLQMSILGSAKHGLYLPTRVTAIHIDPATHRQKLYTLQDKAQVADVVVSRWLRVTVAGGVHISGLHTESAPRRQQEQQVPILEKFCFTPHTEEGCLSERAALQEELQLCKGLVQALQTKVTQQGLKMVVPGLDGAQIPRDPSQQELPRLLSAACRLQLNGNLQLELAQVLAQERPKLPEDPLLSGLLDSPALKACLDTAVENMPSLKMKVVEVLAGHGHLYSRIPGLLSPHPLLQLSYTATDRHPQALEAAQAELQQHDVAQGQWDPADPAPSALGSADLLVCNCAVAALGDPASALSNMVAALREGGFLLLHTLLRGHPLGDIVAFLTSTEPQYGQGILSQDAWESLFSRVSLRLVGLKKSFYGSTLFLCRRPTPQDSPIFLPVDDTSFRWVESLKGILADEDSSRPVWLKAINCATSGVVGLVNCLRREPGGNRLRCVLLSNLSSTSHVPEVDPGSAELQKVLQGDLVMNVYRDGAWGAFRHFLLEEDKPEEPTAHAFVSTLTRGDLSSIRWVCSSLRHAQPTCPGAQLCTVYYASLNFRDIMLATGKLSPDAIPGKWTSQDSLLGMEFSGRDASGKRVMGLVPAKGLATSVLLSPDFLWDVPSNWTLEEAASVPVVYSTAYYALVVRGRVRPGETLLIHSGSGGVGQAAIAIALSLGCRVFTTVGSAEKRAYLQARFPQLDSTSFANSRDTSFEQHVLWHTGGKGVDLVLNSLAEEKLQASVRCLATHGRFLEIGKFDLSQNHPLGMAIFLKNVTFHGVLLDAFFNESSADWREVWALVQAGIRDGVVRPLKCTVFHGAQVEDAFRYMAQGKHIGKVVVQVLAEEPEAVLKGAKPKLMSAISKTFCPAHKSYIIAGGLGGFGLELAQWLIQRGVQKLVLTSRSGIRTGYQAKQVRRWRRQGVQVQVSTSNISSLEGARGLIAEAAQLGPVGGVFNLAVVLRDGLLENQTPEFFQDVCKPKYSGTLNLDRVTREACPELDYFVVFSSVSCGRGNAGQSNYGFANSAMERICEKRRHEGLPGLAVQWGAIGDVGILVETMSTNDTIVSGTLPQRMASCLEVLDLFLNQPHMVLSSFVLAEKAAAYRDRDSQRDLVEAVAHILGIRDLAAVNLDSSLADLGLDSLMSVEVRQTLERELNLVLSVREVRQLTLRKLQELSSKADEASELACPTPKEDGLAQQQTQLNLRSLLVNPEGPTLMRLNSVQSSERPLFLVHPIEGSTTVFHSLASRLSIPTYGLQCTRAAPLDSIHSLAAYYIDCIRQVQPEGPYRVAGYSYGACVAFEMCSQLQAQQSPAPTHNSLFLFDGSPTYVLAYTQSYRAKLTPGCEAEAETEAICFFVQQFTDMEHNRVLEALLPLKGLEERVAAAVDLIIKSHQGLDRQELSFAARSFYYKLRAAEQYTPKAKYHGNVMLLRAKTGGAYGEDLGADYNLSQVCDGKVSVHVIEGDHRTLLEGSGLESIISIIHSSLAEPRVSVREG

Consider `CN(C)CC(=O)N1CCC2(CC1)N=C(c1ccc(-c3ccc4c(cnn4C)c3)cc1)N(C[C@@H]1CCN(C(=O)C3CC3)C1)C2=O` [compound 141, 3-{[(3R)-1-(Cyclopropylcarbonyl)pyrrolidin-3-yl]methyl}-8-(N,N-dimethylglycyl)-2-[4-(1-methyl-1H-indazol-5-yl)phenyl]-1,3,8-triazaspiro[4.5]dec-1-en-4-one], for which the inhibition at 10 µM amounted to 110% and the IC50 is 0.251 µM.

Turning to `CN(C)CC(=O)N1CCC2(CC1)N=C(c1ccc(-c3ccc4cnccc4c3)cc1)N(C[C@@H]1CCN(C(=O)C3CC3)C1)C2=O` [compound 142, 3-{[(3R)-1-(Cyclopropylcarbonyl)pyrrolidin-3-yl]methyl}-8-(N,N-dimethylglycyl)-2-(4-isoquinolin-6-ylphenyl)-1,3,8-triazaspiro[4.5]dec-1-en-4-one], the inhibition at 10 µM amounted to 119% and the IC50 is 0.0692 µM.

Consider `CC(C)C(=O)N1CCC2(CC1)N=C(c1ccc(-c3ccc4cnccc4c3)cc1)N(C[C@@H]1CCN(C(=O)C3CC3)C1)C2=O` [compound 143, 3-{[(3R)-1-(Cyclopropylcarbonyl)pyrrolidin-3-yl]methyl}-2-(4-isoquinolin-6-ylphenyl)-8-(2-methylpropanoyl)-1,3,8-triazaspiro[4.5]dec-1-en-4-one], for which the inhibition at 10 µM came to 119% and the IC50 is 0.0363 µM.

For `CC(=O)N1CCC2(CC1)N=C(c1ccc(-c3ccc4cnccc4c3)cc1)N(C[C@@H]1CCN(C(=O)C3CC3)C1)C2=O` [compound 144, 8-Acetyl-3-{[(3R)-1-(cyclopropylcarbonyl)pyrrolidin-3-yl]methyl}-2-(4-isoquinolin-6-ylphenyl)-1,3,8-triazaspiro[4.5]dec-1-en-4-one], the inhibition at 10 µM was found to be 117% and the IC50 is 0.0631 µM.

Take `CN(C)c1cccc(-c2ccc(C3=NC4(CC4)C(=O)N3C[C@@H]3CCN(C(=O)C4CC4)C3)cc2)c1` [compound 145, 6-{[(3R)-1-(Cyclopropylcarbonyl)pyrrolidin-3-yl]methyl}-5-[3′-(dimethylamino)biphenyl-4-yl]-4,6-diazaspiro[2.4]hept-4-en-7-one]: the inhibition at 10 µM stood at 106% and the IC50 was 0.398 µM.

Turning to `O=C(C1CC1)N1CC[C@@H](CN2C(=O)C3(CC3)N=C2c2ccc(-c3cccc(OC(F)(F)F)c3)cc2)C1` [compound 146, 6-{[(3R)-1-(Cyclopropylcarbonyl)pyrrolidin-3-yl]methyl}-5-[3′-(trifluoromethoxy)biphenyl-4-yl]-4,6-diazaspiro[2.4]hept-4-en-7-one], the inhibition at 10 µM was determined as 38% and the IC50 is more than 10 µM.

In the case of `CC(=O)N1CCC2(CC1)N=C(c1ccc(-c3ccc4[nH]ccc4c3)cc1)N(C[C@@H]1CCN(C(=O)C3CC3)C1)C2=O` [compound 147, (R)-2-(4-(1H-Indol-5-yl)phenyl)-8-acetyl-3-((1-(cyclopropanecarbonyl)pyrrolidin-3-yl)methyl)-1,3,8-triazaspiro[4.5]dec-1-en-4-one], the inhibition at 10 µM came out at 89.5% and the IC50 was 0.0708 µM.

Regarding `CC(=O)N1CCC2(CC1)N=C(c1ccc(-c3ccc4[nH]ncc4c3)cc1)N(C[C@@H]1CCN(C(=O)C3CC3)C1)C2=O` [compound 148, 8-Acetyl-3-{[(3R)-1-(cyclopropylcarbonyl)pyrrolidin-3-yl]methyl}-2-[4-(1H-indazol-5-yl)phenyl]-1,3,8-triazaspiro[4.5]dec-1-en-4-one], the inhibition at 10 µM was found to be 105% and the IC50 is 0.302 µM.

With `CC(=O)N1CCC2(CC1)N=C(c1ccc(-c3ccc4occc4c3)cc1)N(C[C@@H]1CCN(C(=O)C3CC3)C1)C2=O` [compound 150, 8-Acetyl-2-[4-(1-benzofuran-5-yl)phenyl]-3-{[(3R)-1-(cyclopropylcarbonyl)pyrrolidin-3-yl]methyl}-1,3,8-triazaspiro[4.5]dec-1-en-4-one], the inhibition at 10 µM came to 113% and the IC50 was 0.105 µM.

`CC(C)C(=O)N1CCC2(CC1)N=C(c1ccc(-c3ccc4occc4c3)cc1)N(C[C@@H]1CCN(C(=O)C3CC3)C1)C2=O` [compound 151, 2-[4-(1-Benzofuran-5-yl)phenyl]-3-{[(3R)-1-(cyclopropylcarbonyl)pyrrolidin-3-yl]methyl}-8-(2-methylpropanoyl)-1,3,8-triazaspiro[4.5]dec-1-en-4-one]: the inhibition at 10 µM was found to be 112% and the IC50 is 0.129 µM.

On to `O=C(C1CC1)N1CCC2(CC1)N=C(c1ccc(-c3ccc4occc4c3)cc1)N(C[C@@H]1CCN(C(=O)C3CC3)C1)C2=O` [compound 152, 2-[4-(1-Benzofuran-5-yl)phenyl]-8-(cyclopropylcarbonyl)-3-{[(3R)-1-(cyclopropylcarbonyl)pyrrolidin-3-yl]methyl}-1,3,8-triazaspiro[4.5]dec-1-en-4-one], for which the inhibition at 10 µM amounted to 123% and the IC50 was 0.123 µM.

Consider `CN(C)CC(=O)N1CCC2(CC1)N=C(c1ccc(-c3ccc4occc4c3)cc1)N(C[C@@H]1CCN(C(=O)C3CC3)C1)C2=O` [compound 153, 2-[4-(1-Benzofuran-5-yl)phenyl]-3-{[(3R)-1-(cyclopropylcarbonyl)pyrrolidin-3-yl]methyl}-8-(N,N-dimethylglycyl)-1,3,8-triazaspiro[4.5]dec-1-en-4-one], for which the inhibition at 10 µM came to 116% and the IC50 is 0.105 µM.

Take `CN(C)CC(=O)N1CCC2(CC1)N=C(c1ccc(-c3ccc4cnccc4c3)cc1)N(CC1CN(C(=O)C3CC3)C1)C2=O` [compound 154, 3-{[1-(Cyclopropylcarbonyl)azetidin-3-yl]methyl}-8-(N,N-dimethylglycyl)-2-(4-isoquinolin-6-ylphenyl)-1,3,8-triazaspiro[4.5]dec-1-en-4-one]: the inhibition at 10 µM is 109% and the IC50 was 0.269 µM.

On to `Cc1cc2cc(-c3ccc(C4=NC5(CCNCC5)C(=O)N4C[C@@H]4CCN(C(=O)C5CC5)C4)cc3)ccc2o1` [compound 155], for which the inhibition at 10 µM came out at 96.5% and the IC50 was 0.776 µM.

Take `COc1cc(-c2ccc3occc3c2)ccc1C1=NC2(CCCC2)C(=O)N1C[C@@H]1CCN(C(=O)C2CC2)C1` [compound 156, 2-[4-(1-Benzofuran-5-yl)-2-methoxyphenyl]-3-{[(3R)-1-(cyclopropylcarbonyl)pyrrolidin-3-yl]methyl}-1,3-diazaspiro[4.4]non-1-en-4-one]: the inhibition at 10 µM was 108% and the IC50 was 0.191 µM.

For `COc1cc(-c2ccc3[nH]ccc3c2)ccc1C1=NC2(CCCC2)C(=O)N1C[C@@H]1CCN(C(=O)C2CC2)C1` [compound 157, 3-{[(3R)-1-(Cyclopropylcarbonyl)pyrrolidin-3-yl]methyl}-2-[4-(1H-indol-5-yl)-2-methoxyphenyl]-1,3-diazaspiro[4.4]non-1-en-4-one], the inhibition at 10 µM was found to be 112% and the IC50 is 0.0676 µM.

With `O=C(C1CC1)N1CCC(CN2C(=O)C3(CC3)N=C2c2ccc(-c3cccc(F)c3)cc2)CC1` [compound 158, 6-{[1-(Cyclopropylcarbonyl)piperidin-4-yl]methyl}-5-(3′-fluorobiphenyl-4-yl)-4,6-diazaspiro[2.4]hept-4-en-7-one], the inhibition at 10 µM is 33% and the IC50 is more than 10 µM.

Regarding `O=C(C1CC1)N1CC[C@@H](CN2C(=O)C3(CCN(CCO)CC3)N=C2c2ccc(-c3ccc4cnccc4c3)cc2)C1` [compound 159, 3-{[(3R)-1-(Cyclopropylcarbonyl)pyrrolidin-3-yl]methyl}-8-(2-hydroxyethyl)-2-(4-isoquinolin-6-ylphenyl)-1,3,8-triazaspiro[4.5]dec-1-en-4-one], the inhibition at 10 µM amounted to 116% and the IC50 was 0.0794 µM.

For the molecule `CC(=O)N1CCC2(CC1)N=C(c1ccc(-c3ccc4c(c3)CCN(C(C)=O)C4)cc1)N(C[C@@H]1CCN(C(=O)C3CC3)C1)C2=O` [compound 160], the inhibition at 10 µM was found to be 29.3% and the IC50 is more than 10 µM.

As for `CC(=O)N1CCC2(CC1)N=C(c1ccc(C3=CC4CCN(C(C)=O)CC4C=C3)cc1)N(C[C@@H]1CCN(C(=O)C3CC3)C1)C2=O` (stereo partly drawn) [compound 161, 8-Acetyl-2-[4-(2-acetyl-1,2,3,4,4a,8a-hexahydroisoquinolin-6-yl)phenyl]-3-{[(3R)-1-(cyclopropylcarbonyl)pyrrolidin-3-yl]methyl}-1,3,8-triazaspiro[4.5]dec-1-en-4-one], the inhibition at 10 µM came out at 16% and the IC50 is more than 10 µM.

`CC(C)N1CCC2(CC1)N=C(c1ccc(-c3ccc4cnccc4c3)cc1)N(C[C@@H]1CCN(C(=O)C3CC3)C1)C2=O` [compound 163]: the inhibition at 10 µM is 110% and the IC50 was 0.229 µM.

For the molecule `CN(C)CC(=O)N1CCC2(CC1)N=C(c1ccc(-c3ccc4[nH]ccc4c3)cc1)N(C[C@@H]1CCN(C(=O)C3CC3)C1)C2=O` [compound 164, 3-{[(3R)-1-(Cyclopropylcarbonyl)pyrrolidin-3-yl]methyl}-8-(N,N-dimethylflycyl)-2-[4-(1H-indol-5-yl)phenyl]-1,3,8-triazaspiro[4.5]dec-1-en-4-one], the inhibition at 10 µM turned out to be 115% and the IC50 is 0.0398 µM.
